Measurements as given in patent publication US20260315562A1, “NOVEL FEED-ADDITIVE COMPOSITION” (KYNTOX BIOTECH INDIA PRIVATE LIMITED, priority 2023, published 2026).

What was measured:
[1] = system: white spot syndrome virus (WSSV); details: dietary supplementation; Qian et al. 2021, Gong et al. 2022; cited from earlier work
[2] = Safety of test sample in non-infected freshwater crabs (Placebo group); note: key: 0: Represents live animal; 1: Represents Animal Mortality; assay type: in vivo, P. hydrodromous; details: GML 5 mg/animal
Procedure: Placebo: The term is used herein in reference to disease negative wherein the highest dose of test molecule has been injected, and evidences for safety of test molecules.
(§1) Freshwater crabs P. hydrodromous were collected from Padavedu (12.6310070 79.052885°) Vellore, India.
(§2) The animals with a body weight of 20-25 g were transported to the laboratory and maintained at room temperature (25° C.). The crabs were fed twice a day with boiled egg whites. The crabs were kept in the described condition for one week before the experiment.
(§3) The anti-viral efficacy of GMVL and saponin-rich extract against WSSV was assessed in the freshwater crab, previously acclimated to laboratory conditions. The crabs were divided into different experimental groups containing 4 crabs per group and the experiment was performed in duplicates. The viral inoculum mixture was injected into the respective group after 3 h of pre-incubation. All the crabs were injected intramuscularly at the second abdominal segment. Briefly, healthy crabs received the injection as given above. The crabs were fed twice a day and observed regularly for gross signs of disease. The experiment was carried out up to several days depending on the survival after challenging with WSSV with/without above mentioned antagonist and mortality was recorded to plot a cumulative mortality graph.

WSSV = assay: In vivo anti-viral bioassay: survival of freshwater crabs after WSSV challenge; for Animal survival/mortality: key: 0: Represents live animal; 1: Represents Animal Mortality; set-up: species or system P. hydrodromous
Procedure: Positive Control: The term is used herein in reference to disease positive control where only WSSV virus is injected without any antagonist. This positive for the disease expression.
The experimental groups have been divided in seven groups, Group-I-VII as described below:
as §1, §2
As described in earlier reports (Natarajan et al., 2017), haemolymph was drawn from WSSV infected shrimp using a 26-gauge syringe through heart puncture. The haemolymph was centrifuged at 3000 rpm for 20 minutes at 4° C. The supernatant was collected and it was centrifuged for 30 minutes at 4° C. and then it was filtered using 0.45p m and stored at −20° C. for further studies. The haemolymph were analyzed via PCR to confirm the presence of WSSV. To amplify the structural VP28 gene, a conventional PCR reaction was set up, which includes […], 5 pmol WSSV-VP28 primer (Table 1), 3 μl PCR-grade water, and 1 μl template DNA (Sundaram et al., 2016; Yoganandhan et al., 2003). The viral titer quantified through real time PCR, was 1.6×10^6 copies μL−1 which served as the stock for this study.
as §3

[3] = preincubated with WSSV, co-injected (i.m)

CCCCCCCCCCCC(=O)OCC(O)CO (stereo not drawn) [GML, Glycerol monolaurate]
WSSV copy number [1]: reduced the WSSV copy number | mortality of WSSV-infected crayfish [1]: reduce the mortality | Animal survival/mortality (Placebo) ([2]; 0 h): 0 | Animal survival/mortality (Placebo) ([2]; 6 h): 0 | Animal survival/mortality (Placebo) ([2]; 12 h): 0 | Animal survival/mortality (Placebo) ([2]; 24 h): 0 | Animal survival/mortality (Placebo) ([2]; 48 h): 0 | Animal survival/mortality (Placebo) ([2]; 72 h): 0 | Animal survival/mortality (Placebo) ([2]; 96 h): 0 | Animal survival/mortality (Placebo) ([2]; 120 h): 0 | Animal survival/mortality (Placebo) ([2]; 144 h): 0 | animal survival time (WSSV; 3 mg/animal, preincubated with WSSV, co-injected (i.m)): > 140 h | time within which all animals in the test groups died post challenging (WSSV; 1 and 3 mg/animal, preincubated with WSSV, co-injected (i.m)): ≤ 150 h | Animal survival/mortality (WSSV; GML 1 mg/animal, 0 h): 0 | Animal survival/mortality (WSSV; GML 1 mg/animal, 6 h): 0 | Animal survival/mortality (WSSV; GML 1 mg/animal, 12 h): 0 | Animal survival/mortality (WSSV; GML 1 mg/animal, 24 h): 1 | Animal survival/mortality (WSSV; GML 1 mg/animal, 48 h): 0 | Animal survival/mortality (WSSV; GML 1 mg/animal, 72 h): 1 | Animal survival/mortality (WSSV; GML 1 mg/animal, 96 h): 1 | Animal survival/mortality (WSSV; GML 1 mg/animal, 120 h): 1 | Animal survival/mortality (WSSV; GML 3 mg/animal, 0 h): 0 | Animal survival/mortality (WSSV; GML 3 mg/animal, 6 h): 0 | Animal survival/mortality (WSSV; GML 3 mg/animal, 12 h): 0 | Animal survival/mortality (WSSV; GML 3 mg/animal, 24 h): 1 | Animal survival/mortality (WSSV; GML 3 mg/animal, 48 h): 0 | Animal survival/mortality (WSSV; GML 3 mg/animal, 72 h): 1 | Animal survival/mortality (WSSV; GML 3 mg/animal, 96 h): 1 | Animal survival/mortality (WSSV; GML 3 mg/animal, 120 h): 1 | Animal survival/mortality (WSSV; GML 3 mg/animal, 144 h): 1 | mortality (in words) (WSSV; alone or in combination): the mortality is significant | inhibition of the virus (WSSV; [3]): partial inhibition of the virus | protection of the animal from lethality (WSSV; [3]): could not protect the animal from lethality
